Source: patent publication US20040167111A1, “Pharmaceutical preparations for treating side effects during and/or after GnRHa therapy” (priority 1998, published 2004)

Key:
prostate of male rats = test: Model study in male rats: moisture content of the prostate after 21 days; type: in vivo
Description: (§1) A model study was performed in which both 17β-estradiol and 14α,15α-methylene-1,3,5(10),8-tetraene-3,17α-diol were administered to male rats. The purpose of this study was to compare the extent of the undersirable side effects produced in males (in this case male rats as a model) that are produced by administration of an estrogen, namely 17β-estradiol, and by 14α, 15α-methylene-1,3,5(10),8-tetraene-3,17α-diol, an effective ingredient of the present invention.
(§2) Respective amounts of 17β-estradiol and 14α,15α-methylene-1,3,5(10),8-tetraene-3,17α-diol equivalent to 0.04 mg/kg body weight were administered over a 21 day period to the male rats in corresponding groups of male rats. These amounts were administered daily over the 21 day period to individual male rats subcutaneously. Eight male rats were in each group.
(§3) The moisture content in the prostate and seminal vesicles of each tested male rat was measured at the end of the 21 day test period. The experimental error estimate is shown with the “T” at the top of each bar in the respective bar graphs.

[1] = tested on: seminal vesicles of male rats; test: Model study in male rats: moisture content of the seminal vesicles after 21 days; type: in vivo
Description: as §1, §2, §3

[2] = tested on: female test subjects treated with Decapeptyl-Depot for endometriosis; test: Clinical study in women with endometriosis under GnRHa therapy (Decapeptyl-Depot); type: in vivo, human
Description: Here clinical studies in women with endometriosis are reported.
(§4) The effectiveness of injected Decapeptyl-Depot (Ferring Arzneimittel GmbH, Kiel, Germany) in a dose of 3.2 mg of Triptorelin intramuscularly at intervals of four weeks and 1 to 2 mg of 14α,15α-methylene-1,3,5(10),8-tetraene-3,17α-diol daily, given in the form of a vaginal suppository of 1 mg of 14α,15α-methylene-1,3,5(10),8-tetraene-3,17α-diol each, was tested in fourteen female test subjects aged 22 to 38, who were being treated with Decapeptyl-Depot for endometriosis for at least six months.
The treatment with 14α,15α-methylene-1,3,5(10),8-tetraene-3,17α-diol was begun four weeks after the beginning of GnRHa therapy, that is, at the time of the second Decapeptyl injection.
Hot flashes were recorded by the subjects daily on a control form laid out for a 24-hour day, beginning with the first day of Decapeptyl therapy.
The mean number of hot flashes per 24 hours in weeks 3 and 4 of the GnRHa treatment (that is, before the beginning of the 14α,15α-methylene-1,3,5(10),8-tetraene-3,17α-diol therapy) was assumed to be 100%, for the sake of better comparability. The number of hot flashes during additional therapy with 14α,15α-methylene-1,3,5(10),8-tetraene-3,17α-diol was indicated as a percentage of the starting value. For five subjects, a measurement of skin temperature over 24 hours was done, for the sake of objectivity.
At intervals of four weeks, immediately prior to the injection of Decapeptyl-Depot, blood was drawn to determine LI-I, FSH, prolactin, testosterone, DHEAS, SHBG, free testosterone, estradiol, and progesterone. Blood specimens were also taken for determining a simple blood count, SGOT, SGPT, creatinine, Na, K, Ca, albumin, glucose and CA 125.
For long-term treatment, bone density was monitored at intervals of 6 to 12 months. In seven subjects, trials of withdrawal from 14α,15α-methylene-1,3,5(10),8-tetraene-3,17α-diol over 4 to 8 weeks each were done.

[3] = tested on: test subjects with fibroid tumors of the uterus; test: Clinical study in women with fibroid tumors of the uterus under GnRHa therapy; type: in vivo, human
Description: as §4
Test subjects aged 22 to 46 with fibroid tumors of the uterus were given the same doses.

[4] = tested on: males with prostate-Ca under GnRHa therapy; test: Observation in males with prostate-Ca under GnRHa therapy; type: in vivo, human
[5] = tested on: female test subjects treated with Decapeptyl-Depot for endometriosis; test: Clinical study in women with endometriosis under GnRHa therapy (Decapeptyl-Depot); type: in vivo, human; remark: listed apart in the source

Question: How did the “proliferation effect in the prostates (increase in the moisture content)” value (prostate of male rats; male rats, 0.04 mg/kg body weight subcutaneously daily over 21 days, FIG. 1) turn out when `C[C@]12CCC3=C(CCc4cc(O)ccc43)[C@@]13C[C@H]3C[C@H]2O` [14α,15α-methylene-1,3,5(10),8-tetraene-3,17α-diol] was run?
Answer: Its value is “scarcely any proliferation effect”.

Question: What about the “undesirable estrogen side effects” value (prostate of male rats; male rats, prostate and seminal vesicles, 0.04 mg/kg s.c. daily 21 days) of the same compound?
Answer: The value was “no undesirable estrogen side effects”.

Question: What about the “proliferation effect on the seminal vesicles (increase in the moisture content)” value ([1]; male rats, 0.04 mg/kg body weight subcutaneously daily over 21 days, FIG. 2) of the same compound?
Answer: The value was “no profileration effect”.

Question: What about the bleeding ([2]; 1 to 2 mg daily as vaginal suppository in addition to Decapeptyl-Depot) of the same compound?
Answer: Its bleeding is “No bleeding occurred”.

Question: What about the “values for LH, FSH, prolactin, testosterone, DHEAS, SHBG, estradiol, and progesterone” value ([2]; 1 to 2 mg daily vaginal suppository in addition to Decapeptyl-Depot) of the same compound?
Answer: Its value is “remained low and unchanged”.

Question: And the “Ca 125 values” ([2]; add-on to Decapeptyl-Depot)?
Answer: The value was “did not rise”.

Question: What about the body weight ([2]; add-on to Decapeptyl-Depot) of the same compound?
Answer: Its body weight is “no change”.

Question: And the intracyclic bleeding ([2]; add-on to Decapeptyl-Depot)?
Answer: The intracyclic bleeding was “No intracyclic bleeding occurred”.

Question: And the “liver values, blood count or electrolytes” value ([2]; add-on to Decapeptyl-Depot)?
Answer: Its value is “No changes”.

Question: And the endometriosis-specific complaints ([2]; during the treatment)?
Answer: Its endometriosis-specific complaints is “did not recur”.

Question: And the bone density ([2]; over one year, four subjects monitored)?
Answer: The bone density was “did not change significantly”.

Question: What about the blood pressure ([2]; subjects with borderline RR (n=4, RR around 140/80)) of the same compound?
Answer: Its blood pressure is “around 110/70”.

Question: What about the “hot flashes in withdrawal trial” value ([2]; withdrawal over 4 to 8 weeks, seven subjects) of the same compound?
Answer: The value was “increase in hot flashes, within three weeks back to the starting values”.

Question: What about the “course of the decrease in uterine volume versus subjects not receiving the compound” value ([3]; Decapeptyl-Depot plus add-on) of the same compound?
Answer: Its value is “identical”.

Question: And the “influence on the effect of the GnRHa therapy on the lower organs” value ([3]; supplementary treatment)?
Answer: The value was “did not influence”.

Question: And the uterus size ([3]; within three months, Decapeptyl-Depot plus add-on)?
Answer: The uterus size was 40±10 % of the starting value.

Question: What about the “hot flashes tripped by GnRHa therapy” value [4] of the same compound?
Answer: The value was “same result”.

Question: And the “complaints of undesirable estrogen-related side effects” value ([5]; all subjects)?
Answer: The value was “complaint-free”.

Question: And the “hot flashes tripped by GnRHa therapy” value ([5]; treated females, endometriosis or fibroid tumors of the uterus)?
Answer: Its value is “effectively eliminated”.

Question: `C[C@]12CC[C@@H]3c4ccc(O)cc4CC[C@H]3[C@@H]1CC[C@@H]2O` [estradiol, 17β-estradiol, reference compound] was tested. Which “proliferation effect in the prostates (increase in the moisture content)” value (prostate of male rats; rat, in vivo, sc, 0.04 mg/kg) did it give?
Answer: The value was “comparatively large proliferation effect”.

Question: What about the “undesirable estrogen side effects” value (prostate of male rats; rat, in vivo, sc, 0.04 mg/kg) of the same compound?
Answer: The value was “estrogen side effects of course result”.

Question: And the “proliferation effect on the seminal vesicles (increase in the moisture content)” value ([1]; rat, in vivo, sc, 0.04 mg/kg)?
Answer: Its value is “comparatively large proliferation effect”.
